The source of these data is ChEMBL document CHEMBL3867484, “3D-QSAR studies of 3-(3,4-dihydroisoquinolin-2(1H)-ylsulfonyl)benzoic acids as AKR1C3 inhibitors: Highlight the importance of molecular docking in conformation generation” (Bioorg Med Chem Lett, 2016).

The first assay addresses T1, Aldo-keto reductase family 1 member C3 (Homo sapiens, UniProt P42330).
T1 sequence (P42330 whole entry): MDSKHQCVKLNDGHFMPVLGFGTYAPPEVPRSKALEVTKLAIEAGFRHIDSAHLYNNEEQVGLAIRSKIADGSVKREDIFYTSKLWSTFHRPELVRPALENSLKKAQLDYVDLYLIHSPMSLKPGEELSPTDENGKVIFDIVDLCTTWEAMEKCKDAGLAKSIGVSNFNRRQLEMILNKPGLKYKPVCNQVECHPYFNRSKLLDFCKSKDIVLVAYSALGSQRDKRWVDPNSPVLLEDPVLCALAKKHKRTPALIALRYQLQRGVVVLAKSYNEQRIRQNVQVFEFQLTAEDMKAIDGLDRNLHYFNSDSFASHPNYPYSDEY
The experiment in a line: Inhibition of human recombinant His-tagged AKR1C3 expressed in Escherichia coli BL21 (DE3) cells using 8-Acetyl-2,3,5,6-tetrahydro-1H,4H-11-oxa-3a-aza-benzo[de]anthracen-10-one as substrate after 1 hr in presence of NADPH by fluorescence assay. To be noted: read-out: IC50.
For `O=C(O)c1cccc(S(=O)(=O)C2CC=CCC2)c1` (stereo not drawn), the IC50 worked out at 390 nM.
On the same count and under the same terms, then `O=C(NN1CCOCC1)c1cccc(S(=O)(=O)N2CCc3ccccc3C2)c1`, with 78 nM; and `O=C(O)c1cccc(S(=O)(=O)N2CCc3ccc(C#Cc4ccc(C(F)(F)F)cc4)cc3C2)c1`, with 1310 nM; and `O=C(O)c1cccc(S(=O)(=O)C2CCc3sccc3C2)c1` (stereo not drawn), with 25 nM.
Same read-out and setting: the value for `CN1CC(c2ccc(S(=O)(=O)N3CCc4ccccc4C3)cc2)CC1=O` (stereo not drawn) was 42 nM; that for `O=C(NN1CCSCC1)c1cccc(S(=O)(=O)N2CCc3ccccc3C2)c1` was 450 nM.

Still in this assay, the particulars now being: read-out: pIC50 (converted).
Take `O=C(O)[C@@H]1CCCN(S(=O)(=O)c2ccc3ccccc3c2)C1`: the IC50 was 31.6 nM.
With `O=C(O)c1cccc(S(=O)(=O)N2CCc3cc(Br)ccc3C2)c1`, the IC50 was 6.03 nM.
